Assay results reported in publication PMC3842914, “Meleagrin, a New FabI Inhibitor from Penicillium chryosogenum with at Least One Additional Mode of Action” (PLoS ONE, 2013).
pIC50: −log10 of the molar value. ≈ marks a conversion by molar mass, not a printed value. Where two headings read alike, the source gives them in different places.

Assays:
[1] = tested on: E. coli KCTC 1924; assay: MIC by broth microdilution, E. coli KCTC 1924; format: cell-based; conditions: Escherichia coli, KCTC1924, read-out: MIC E. coli
Experimental: (§1) Whole-cell antimicrobial activity was determined by broth microdilution as described previously. The test strains except for S. pneumoniae were grown to mid-log phase in Mueller–Hinton broth and diluted 1,000-fold in the same medium. Cells (10^5/mL) were inoculated into Mueller–Hinton broth and dispensed at 0.2 mL/well into a 96-well microtiter plate. S. pneumoniae was grown in tryptic soy broth supplemented with 5% sheep blood. MICs were determined in triplicate by serial 2-fold dilutions of test compounds. […] Bacterial growth was determined by measuring the absorption at 650 nm by using a microtiter ELISA reader.

[2] = tested on: S. aureus RN4220; assay: MIC by broth microdilution, S. aureus RN4220 (wild type); format: cell-based, Staphylococcus aureus; conditions: Staphylococcus aureus; S. aureus RN4220 (wild type)
Experimental: as §1

[3] = target: T1, E. coli FabI (Escherichia coli, UniProt P0AEK4); assay: E. coli FabI enzyme assay (NADH as cofactor); format: biochemical
T1 construct: made in house
Text: (§2) S. aureus FabI and E. coli FabI enzymes were cloned, overexpressed, and purified as described previously. The wild-type fabK gene was amplified by PCR from genomic DNA obtained from Streptococcus pneumoniae KCTC 5412 by using the primers 5′-[…]-3′ and 5′-[…]-3′, which contained NdeI and XhoI restriction sites, respectively. After the DNA sequence was confirmed, the gene was cloned into the pET22b vector (Novagen, Gibbstown, NJ, USA). The construct was transformed into E. coli BL21 (DE3) for expression following induction with isopropylthiogalactoside. The C-terminal His-tagged protein was purified as described previously. Assays were conducted in half-area, 96-well microtiter plates. The compounds were dissolved in DMSO and evaluated in 100-μL assay mixtures containing components specific for each enzyme (see below). Reduction of the trans-2-octenoyl N-acetylcysteamine (t-o-NAC thioester) substrate analog was measured spectrophotometrically following the utilization of NADH or NADPH at 340 nm at 30°C for the linear period of the assay. S. aureus FabI assays contained 50 mM sodium acetate (pH 6.5), 200 μM t-o-NAC thioester, 200 μM NADPH, and 150 nM S. aureus FabI.
(§3) NADH was used as a cofactor rather than NADPH for the E. coli FabI assay. Substrate concentrations used for the Lineweaver–Burk plot were 100, 200, 300, and 400 μM, whereas the concentrations of the cofactor were 100, 200, 400, and 600 μM. The rate of decrease in the amount of NADPH in each reaction was measured with a microtiter enzyme-linked immunosorbent assay (ELISA) reader by using the SOFTmax PRO software (Molecular Devices, Sunnyvale, CA, USA). The inhibitory activity was calculated according to the following formula: % of inhibition = 100× [1− (rate in the presence of compound/rate in the untreated control)]. IC50 values were calculated by fitting the data to a sigmoid equation. An equal volume of DMSO solvent was used for the untreated control. FabK assays contained 100 mM sodium acetate (pH 6.5), 2% glycerol, 200 mM NH4Cl, 50 µM t-o-NAC thioester, 200 µM NADH, and 150 nM S. pneumoniae FabK.

[4] = target: T2, S. aureus FabI (Staphylococcus aureus, UniProt Q6GI75); assay: S. aureus FabI enzyme assay (NADPH use at 340 nm, t-o-NAC thioester substrate); format: biochemical
T2 construct: made in house
T2 sequence (Q6GI75 1-256): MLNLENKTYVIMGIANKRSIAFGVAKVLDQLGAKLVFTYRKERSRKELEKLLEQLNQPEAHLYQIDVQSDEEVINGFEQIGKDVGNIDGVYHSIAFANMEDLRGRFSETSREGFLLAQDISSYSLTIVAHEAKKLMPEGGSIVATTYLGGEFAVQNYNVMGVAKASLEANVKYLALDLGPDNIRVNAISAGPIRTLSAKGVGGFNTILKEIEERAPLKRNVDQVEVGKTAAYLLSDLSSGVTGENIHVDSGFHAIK
Text: as §2, §3

[5] = target: T3, S. pneumoniae FabK (Streptococcus pneumoniae, UniProt Q9FBC5); assay: S. pneumoniae FabK enzyme assay; format: biochemical
T3 sequence (Q9FBC5 1-324): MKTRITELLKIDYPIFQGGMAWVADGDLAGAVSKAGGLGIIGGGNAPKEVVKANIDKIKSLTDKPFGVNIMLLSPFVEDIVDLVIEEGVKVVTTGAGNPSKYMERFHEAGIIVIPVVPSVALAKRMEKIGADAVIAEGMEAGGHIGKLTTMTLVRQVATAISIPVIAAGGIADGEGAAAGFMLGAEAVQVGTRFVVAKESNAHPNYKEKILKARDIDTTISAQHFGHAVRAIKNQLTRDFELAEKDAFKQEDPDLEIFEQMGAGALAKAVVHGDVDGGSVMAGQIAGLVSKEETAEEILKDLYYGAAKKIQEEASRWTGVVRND
Text: as §2, §3

[6] = tested on: S. pneumoniae KCTC 3932; assay: MIC by broth microdilution, S. pneumoniae KCTC 3932; format: cell-based; conditions: Streptococcus pneumoniae, KCTC3932, read-out: MIC S. pneumoniae
Experimental: as §1

[7] = tested on: E. coli EW1b(pBAD-fabI); assay: Overexpression assay, MIC for fabI-overexpressing E. coli EW1b (pBAD-fabI); format: cell-based; conditions: Escherichia coli
Experimental: as §1
(§4) An overexpression assay using S. aureus RN4220, S. aureus RN4220 (pE194), and S. aureus RN4220 (pE194-fabI) was conducted to perform target validation of FabI inhibitors as described previously. Additionally, both fabI- and fabK-overexpressing E. coli were constructed to test a multitarget effect of the compounds. The wild-type fabI gene from the genomic DNA of E. coli W3110 was amplified by PCR by using the primers 5′-[…]-3′ and 5′-[…]-3′. The wild-type fabK gene from the genomic DNA of S. pneumoniae KCTC 5412 was amplified by PCR by using the primers 5′-[…]-3′ and 5′-[…] […]-3′. The resulting products were cloned into the pBAD-TOPO TA expression vector (Invitrogen, Carlsbad, CA, USA) to yield the pBAD-fabI and pBAD-fabK recombinant plasmids, which placed the expression of the genes fabI and fabK, respectively, under the control of the arabinose promoter. Recombinant pBAD-fabI and pBAD-fabK were then introduced into the pump-negative (tolC) E. coli EW1b via electroporation to generate E. coli EW1b (pBAD-fabI) and E. coli EW1b (pBAD-fabK), respectively.

[8] = tested on: E. coli EW1b(pBAD-fabK); assay: Overexpression assay, MIC for fabK-overexpressing E. coli EW1b (pBAD-fabK); format: cell-based; conditions: Escherichia coli
Experimental: as §1, §4

[9] = tested on: E. coli EW1b; assay: Overexpression assay, MIC for pump-negative (tolC) E. coli EW1b; format: cell-based; conditions: Escherichia coli
Experimental: as §1, §4

[10] = tested on: E. coli EW1b(pBAD); assay: Overexpression assay, MIC for vector-containing E. coli EW1b (pBAD); format: cell-based; conditions: Escherichia coli
Experimental: as §1, §4

[11] = tested on: S. pneumoniae KCTC 3932; assay: Inhibition of macromolecular biosynthesis (radiolabeled precursor incorporation) in S. pneumoniae; format: cell-based, Streptococcus pneumoniae; conditions: drugs at 2 times the MIC
Experimental: (§5) To monitor the effects of compound 1 on lipid, DNA, RNA, protein, and cell wall biosynthesis, its effects on the incorporation of [1-^14C] acetate (50 mCi/mmol), [2-^14C] thymidine (59.8 mCi/mmol), [U-^14C] uridine (539 mCi/mmol), L-[U-^14C] leucine (306 mCi/mmol) or L-[U-^14C] isoleucine (329 mCi/mmol), and N-acetyl-D-[1-^14C] glucosamine (58.1 mCi/mmol) into S. aureus and S. pneumoniae were measured as described previously. S. aureus was exponentially grown to an A650 of 0.2 in Mueller–Hinton broth. S. pneumoniae was grown in tryptic soy broth supplemented with 5% sheep blood. […] An equal volume of DMSO solvent was added to the untreated control. After incubation with the radiolabeled precursors at 37°C for 1 h, followed by centrifugation, the cell pellets were washed twice with PBS buffer. After acetate incorporation, the total cellular lipids were extracted with chloroform-methanol-water. The incorporated radioactivity in the chloroform phase was measured by scintillation counting. For the other precursors, incorporation was terminated by adding 10% (w/v) TCA and cooling on ice for 20 min. The precipitated material was collected on Whatman GF/C glass microfiber filters, washed with TCA and ethanol, dried, and counted using a scintillation counter. The total counts incorporated at 1 h of incubation without inhibitors ranged from >7,000 for [U-^14C] uridine to <13,000 for [1-^14C] acetate. […] In all experiments, known antibacterial agents were included as positive controls.

[12] = tested on: S. aureus RN4220; assay: Inhibition of macromolecular biosynthesis (radiolabeled precursor incorporation) in S. aureus; format: cell-based, Staphylococcus aureus; conditions: drugs at 2 times the MIC
Experimental: as §5

[13] = tested on: S. aureus RN4220 (pE194); assay: Overexpression assay, MIC for vector-containing S. aureus RN4220 (pE194); format: cell-based; conditions: Staphylococcus aureus, read-out: MIC S. aureus (pE194)
Experimental: as §1, §4

[14] = tested on: S. aureus RN4220 (pE194-fabI); assay: Overexpression assay, MIC for fabI-overexpressing S. aureus RN4220 (pE194-fabI); format: cell-based; conditions: Staphylococcus aureus, read-out: MIC S. aureus (pE194-fabI)
Experimental: as §1, §4

[15] = read-out: MIC E. coli EW1b(pBAD-fabI) (+) Ara
[16] = read-out: MIC E. coli EW1b(pBAD-fabI) (−) Ara
[17] = read-out: MIC E. coli EW1b(pBAD-fabK) (+) Ara
[18] = read-out: MIC E. coli EW1b(pBAD-fabK) (−) Ara
[19] = read-out: MIC E. coli EW1b (+) Ara
[20] = read-out: MIC E. coli EW1b (−) Ara
[21] = read-out: MIC E. coli EW1b(pBAD) (+) Ara
[22] = read-out: MIC E. coli EW1b(pBAD) (−) Ara

T1 sequence (P0AEK4 whole entry): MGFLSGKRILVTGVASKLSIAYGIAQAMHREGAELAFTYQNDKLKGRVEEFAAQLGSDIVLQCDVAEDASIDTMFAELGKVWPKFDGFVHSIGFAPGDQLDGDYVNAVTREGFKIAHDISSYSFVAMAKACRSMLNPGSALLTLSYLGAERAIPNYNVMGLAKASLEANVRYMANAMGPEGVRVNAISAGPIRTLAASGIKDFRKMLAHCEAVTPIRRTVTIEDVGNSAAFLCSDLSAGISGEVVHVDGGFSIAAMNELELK

SMILES	MIC [2] [µg/mL]	pIC50 [4]	MIC [7, 15] [µg/mL]	MIC [7, 16] [µg/mL]	MIC [8, 17] [µg/mL]	MIC [8, 18] [µg/mL]	MIC [9, 19] [µg/mL]	MIC [9, 20] [µg/mL]	MIC [10, 21] [µg/mL]	MIC [10, 22] [µg/mL]	also measured
C=CC(C)(C)C12C=C(O)C(=O)N3/C(=C/c4cnc[nH]4)C(=O)NC31Nc1ccccc12 (centres unmarked) [Compound 2, glandicolin A]	64 (≈ 159 µM)	4.26									MIC [1]: 64 µg/mL (≈ 159 µM); pIC50 [3]: 4.30; pIC50 [5]: < 3.70; MIC [6]: 64 µg/mL (≈ 159 µM)
CC1(C)S[C@@H]2[C@H](NC(=O)[C@H](N)c3ccccc3)C(=O)N2[C@H]1C(=O)O [Ampicillin]			> 125	> 125	> 125	> 125	1 (≈ 2.86 µM)	1 (≈ 2.86 µM)	> 125	> 125	
CCCCC[C@H](CC(=O)NO)C(=O)N[C@H](C(=O)N1CCC[C@H]1CO)C(C)C [Actinonin]			1 (≈ 2.59 µM)	1 (≈ 2.59 µM)	1 (≈ 2.59 µM)	1 (≈ 2.59 µM)	1 (≈ 2.59 µM)	1 (≈ 2.59 µM)	1 (≈ 2.59 µM)	1 (≈ 2.59 µM)	
C/C=C/C/C=C/CCC(=O)[C@H]1O[C@H]1C(N)=O [cerulenin, reference compound]											Inhibition of precursor incorporation, [1-14C] Acetate [11]: 95%
O=C(N[C@H](CO)[C@H](O)c1ccc([N+](=O)[O-])cc1)C(Cl)Cl [chlorampenicol, chloramphenicol, reference compound]											Inhibition of precursor incorporation, L-[U-14C] Isoleucine [11]: 85%; Inhibition of precursor incorporation, L-[U-14C] Isoleucine [12]: 74%
Cc1onc(-c2ccccc2)c1C(=O)N[C@@H]1C(=O)N2[C@@H]1SC(C)(C)[C@@H]2C(=O)O [Oxacillin, reference compound]	0.25 (≈ 0.623 µM)	< 4.00									MIC [13]: 0.25 µg/mL (≈ 0.623 µM); MIC [14]: 0.25 µg/mL (≈ 0.623 µM)
